Experimental findings from patent publication US20240101602A1, “ANTIMICROBIAL PEPTIDES AND METHOD OF PREVENTING OR TREATING INFECTION BY USING THE SAME” (priority 2020, published 2024) are described below.

Series [1] has as its system Erwinia chrysanthemi. In kind it is cell-based. The procedure, abridged:
(§1)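 Bacteria were grown 4–6 h, set to OD600=0.08 in rich or minimal medium, then diluted 100-fold. This inoculum was mixed 1:1 with 2-fold serial peptide dilutions and incubated static at optimal temperature. MIC was read from growth and MBC taken as the lowest concentration giving no colonies.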

The test system of series [2] is Pectobacterium carotovorum subsp. carotovorum. In kind it is cell-based. The procedure, abridged:
as §1

Series [3] relates to bacteria, fungal spores, and fungal mycelia. Format: cell-based. The settings on record: SYTOX Green, crude peptides, room temperature in dark for 2 h.
For series [4], the system named is red blood cells. Format: cell-based, rat. On the procedure: Further, the hemolytic activity of the antimicrobial peptides was tested. EDTA-treated rat whole blood was centrifuged at 840×g for 3 minutes at 4° C. to separate blood cells and plasma. The plasma was removed, and the blood cells were washed three times with PBS having the same volume as the original blood volume by gently turning the centrifuge tube upside down. After washing, ten microliters of blood cells were diluted in PBS 2000 times to count the cells. Finally, red blood cells were diluted to 5×10^8 cells/mL in PBS. Peptides were dissolved in water and filtered through a 0.2-μm filter to make a stock solution. The peptide concentration was quantitated by UV280. The peptide solution was diluted in PBS to different concentrations (5 times of tested concentration). Twenty microliters of peptide in PBS were mixed with 80 μL of red blood cell solution in a 96-well plate (V-bottom). […] The concentration of heme contained in each well was measured by UV405 using Infinite M1000 pro (Tecan). The hemolytic activity was calculated using the following formula: Hemolytic activity=[(F−F0)/(Ft−F0)]×100% • F is UV405 of the peptide-treated sample; • F0 is UV405 of sample without peptide (negative control); • Ft is UV405 of the Triton-treated sample (positive control).

Series [5] is described as follows: in vitro. The settings on record: human, HEK293 cells. Format: cell-based. On the procedure:
PepD3 was dissolved in water and filtered through a 0.2-μm filter. The peptide concentration was quantitated by UV280 to make a stock solution of 5120 μg/mL. The pepD3 stock solution was serially diluted in the serum-free DMEM. […] The serum-free DMEM medium without peptide was used as negative control. Cell viability was assessed using the Cell Titer 96 Aqueous One Solution Cell Proliferation Assay (Promega), in accordance with the manufacturer's instructions. The absorbance was measured with an Infinite M1000 pro (Tecan) at a wavelength of 490 nm. Data were normalized to the negative control to obtain the percentage of cell viability.

Series [6] relates to Xanthomonas oryzae pv. oryzae strain Xoo28. To be noted: Xoo Xoo28; Table 7.
Series [7] has as its system Agrobacterium tumefaciens strain Atu C58C1.
Series [8] concerns Pseudomonas syringae pv. tomato strain DC3000.
Series [9] relates to Pseudomonas syringae pv. syringae strain B728a. The settings on record: Pss B728a; Table 7.
Series [10] concerns Ralstonia solanacearum strain Pss4. To be noted: Rs Pss4; optimal minimal medium, crude peptides (Table 9).
Series [11] concerns Ralstonia solanacearum strain Pss190. To be noted: Rs Pss190; optimal minimal medium, crude peptides (Table 9).
In series [12] the test system is Klebsiella pneumonia NTUH-K2044.
In series [13] the test system is Staphylococcus aureus BCRC 10777.
Series [14] deals with Pseudomonas aeruginosa ATCC 9027. The settings on record: ATCC 9027.

Consider Ac-WKKLKKLLKKL-NH2 [pepD3], for which the MIC (in general, the lowest concentration that inhibits growth of the organism) was 32.0 mg/L in [1]; 3.6 mg/L in [6]; 9.3 mg/L in series [8]; 10.0 mg/L in series [9]; “— (“—” indicates no antimicrobial activity being detected at the highest peptide concentration (32 μg/mL) tested in this study.)” in series [10]; “— (“—” indicates no antimicrobial activity being detected at the highest peptide concentration (32 μg/mL) tested in this study.)” in series [11]. Moreover, the MIC was determined as 16 mg/L in series [12], 16 mg/L in series [13] and 4 mg/L in series [14]. Also, the MBC/MFC result in series [1] (Ech, optimal minimal medium, crude peptides (Table 9)) was “— (“—” indicates no antimicrobial activity being detected at the highest peptide concentration (32 μg/mL) tested in this study.)”; in series [2] it was 13.3 mg/L; in series [10] it was “— (“—” indicates no antimicrobial activity being detected at the highest peptide concentration (32 μg/mL) tested in this study.)”; in [11], “— (“—” indicates no antimicrobial activity being detected at the highest peptide concentration (32 μg/mL) tested in this study.)”. Also, the MBC (as a rule, the lowest tested concentration that kills the bacteria rather than only halting them) in series [2] is 14.3 mg/L; in [6], 4.4 mg/L; in series [7], 2.4 mg/L; in [8], 17.3 mg/L; in [9], 16.0 mg/L; in series [12] it was 16 mg/L. Moreover, the MBC in series [13] was 32 mg/L; in series [14] it was 8 mg/L. Further, the “membranolytic effect on the cell walls of bacteria, fungal spores, and fungal mycelia” value in series [3] was “significant membranolytic effect”. Besides, the hemolytic activity result in [4] is “very little or non-hemolytic activity”. Further, in series [5], the viability (in general, a read-out of living cells in per cent, often relative to untreated cells) at 1 h, 32 µg/mL was more than 91%.
